Experimental data: publication PMC3546861, “HLA-A*0201-restricted CD8^+ T-cell epitopes identified in dengue viruses” (Virology Journal, 2012)
Entries after “also recorded” stand apart in the source; their conditions may differ.

Experiments:
[1] = molecular target: HLA-A*0201 molecule of T2 cells (Homo sapiens, UniProt P04439, D140Y/D185E/D98H/E176V/E277Q/G131W/G231S/I119V/I121R/I166T/I218V/L300P/L318F/N151K/N90K/P208A/P217A/Q86G/Q94H/R138H/R169H/T345S); assay: MHC-peptide complex stabilization assay on T2 cells; type: binding; set-up: key: FI = (MFI sample − MFI background) / MFI background; details: serum-free RPMI 1640, 1 h 37°C, 12 h 26°C, 3 h 37°C, FITC anti-HLA-A*0201, flow cytometry, FI = (MFI sample - MFI background)/MFI background
Procedure: Figure 1 The affinity of candidate epitopes for HLA-A*0201 molecules. T2 cells were incubated in RPMI 1640 medium lacking peptides (red) or containing low peptide (1 μg/ml) (green) or intermediate peptide (10 μg/ml) (purple) or high peptide (100 μg/ml) (blue) for 15 h and stained with FITC-conjugated anti-HLA-A*0201 antibody. Then, mean fluorescence intensity (MFI) was measured using flow cytometry.
The ability of peptides to stabilize MHC molecules on the surface of T2 cells was measured as described previously. T2 cells (2 × 10^5 cells/0.5 ml) were incubated in serum-free RPMI 1640 medium in the presence of different concentrations of peptide (1, 10, 100 μg/ml) for 1 h at 37°C/5% CO2 incubator. Cells were then incubated at 26°C for 12 h, and then returned to 37°C for a 3 h incubation. Finally, T2 cells were stained with FITC-conjugated anti-HLA-A*0201 antibody (BD Pharmingen, USA) for 40 min at 4°C. T2 cells incubated in serum-free RPMI 1640 medium without peptides served as a negative control (background). Mean fluorescence intensity (MFI) of T2 cells was recorded with a FACS Calibur flow cytometer (BD bioscience, USA), and results expressed as fluorescence index (FI). The following formula was used to calculate the FI.
(1) FI=MFI sample-MFI background/MFI background

[2] = tested on: HLA-A*0201 transgenic mice; assay: IFN-γ ELISPOT assay on splenocytes of peptide-immunized mice; type: in vivo; details: mice immunized s.c. with peptide 50 μg/mouse in Freund's adjuvant, 5 weekly doses, splenocytes stimulated with cognate peptide 10 μg/ml, 24 h, background subtracted, mean ± SD, 4 mice/group
Procedure: (§1) HLA-A*0201 transgenic mice were subdivided into 12 groups (4 mice/group). Mice were inoculated subcutaneously with high-affinity peptide (50 μg/mouse) emulsified in Freund’s complete adjuvant. One week later, mice were immunized with the same peptide emulsified in Freund’s incomplete adjuvant. Mice were boosted three more times at weekly intervals. Mock-immunized (adjuvant alone) HLA-A*0201 transgenic mice and peptide-immunized C57BL/6 mice served as controls. One week after the final immunization, all mice were sacrificed and splenocytes extracted. ELISPOT and ICS assays were conducted to detect the frequencies of peptide-specific IFN-γ-producing cells. All animal were performed following the Institutional Animal Care and Use Committee-approved protocols.
Splenocytes were resuspended to a final concentration of 1 × 10^6 cells/ml in RPMI 1640 medium supplemented with 10% fetal bovine serum (FBS). ELISPOT assays were performed in pre-coated 96-well plates (U-CyTech Company, Netherlands). Splenocytes were seeded at 1 × 10^5 cells/well and exposed to either cognate or heterologous peptide at a final concentration of 10 μg/ml. Negative control wells contained splenocytes but no peptide. Positive control wells included cells plus phytohemagglutinin (PHA) at a final concentration of 10 μg/ml. All tests were carried out in duplicate wells, with plates incubated for 24 h at 37°C/5% CO2. Plates were washed and then incubated with biotinylated anti-mouse IFN-γ for 1 h at 37°C. After washing, plates were labeled with streptavidin-horseradish peroxidase, and developed using fresh ACE solution as a substrate. IFN-γ spots were counted using an ELISPOT reader (Beijing SageCreation Science Co. Ltd, Beijing, China). Peptide-specific T-cell frequency was expressed as SFCs/1 × 10^5 splenocytes. Background spots (negative control wells) were subtracted from test wells. A positive response to a peptide was defined as having > 5 SFCs/1 × 10^5 splenocytes after subtraction of the background.

[3] = tested on: HLA-A*0201 transgenic mice; assay: ICS assay for CD8+ IFN-γ+ T cells in splenocytes of peptide-immunized mice; type: in vivo, mouse; details: for ICS CD8^+IFN-γ^+T cells, proportion in CD8^+ T cells: mice immunized s.c. with peptide 50 μg/mouse in Freund's adjuvant, 5 weekly doses, splenocytes stimulated with cognate peptide 10 μg/ml, 6 h, brefeldin A, CD3+CD8+ gate, mean ± SD, 4 mice/group, SD; for Cross-reactivity of peptide-specific CD8^+ T cells towards heterologous variant peptides: splenocytes of peptide-immunized mice stimulated with heterologous peptide 10 μg/ml, ELISPOT and ICS (Figures 4 and 7), result in words
Procedure: as §1
Splenocytes were cultured with either cognate peptide (10 μg/ml) or heterologous peptide (10 μg/ml) in a 1.5 ml microcentrifuge tube for 6 h at 37°C/5% CO2. […] During the last 5 h, brefeldin A (10 μg/ml) was added to each tube. After a 6 h incubation, cells were washed and then stained with APC-conjugated anti-mouse CD3 and FITC-conjugated anti-mouse CD8 antibodies (eBioscience company, USA) for 40 min at 4°C. Cells were then washed and fixed with 4% paraformaldehyde for 20 min at 4°C, permeabilized using 0.5% saponin for 10 min at 4 °C, and stained with PE-conjugated anti-mouse IFN-γ antibody (eBioscience company, USA) for 40 min at 4°C. A FACS Calibur flow cytometer (BD Bioscience, USA) was used to analyze labeled cells. CD3^+ CD8^+ T cells were gated and the proportion of IFN-γ-producing CD8^+ T cells (CD8^+ IFN-γ^+ T cells) as a subset of all CD8^+ T cells were determined.

Sequence: AMVLSIVSL [D1V-NS2a169-177]
- FI (fluorescence index) ([1]; peptide 1 μg (1 μg/ml)): 0.03
- FI (fluorescence index) ([1]; peptide 10 μg (10 μg/ml)): 0.05
- FI (fluorescence index) ([1]; peptide 100 μg (100 μg/ml)): 0.04

Sequence: QVGTLALSL [D4V-NS2a143-151, D4V variant peptide of D1V-NS2a144-152, nonapeptide …]
- FI (fluorescence index) ([1]; peptide 1 μg (1 μg/ml)): 0.22
- FI (fluorescence index) ([1]; peptide 10 μg (10 μg/ml)): 0.2
- FI (fluorescence index) ([1]; peptide 100 μg (100 μg/ml)): 0.8
- ELISPOT IFN-γ spot-forming cells [2]: 12 ± 3 SFCs/1×10^5cells
- ICS CD8^+IFN-γ^+T cells, proportion in CD8^+ T cells [3]: 0.13 ± 0.06%

Sequence: AILTVVAAT [D2V-NS4a140-148, D2V variant peptide of D1V-NS4a140-148, nonapeptide …]
- FI (fluorescence index) ([1]; peptide 1 μg (1 μg/ml)): 0.1
- FI (fluorescence index) ([1]; peptide 10 μg (10 μg/ml)): 0.2
- FI (fluorescence index) ([1]; peptide 100 μg (100 μg/ml)): 1.2
- ELISPOT IFN-γ spot-forming cells [2]: 10 ± 3 SFCs/1×10^5cells
- ICS CD8^+IFN-γ^+T cells, proportion in CD8^+ T cells [3]: 0.12 ± 0.05%

Sequence: LMMRTTWAL [D2V-NS4b182-190, D2V variant peptide of D1V-NS4b183-191, nonapeptide …]
- FI (fluorescence index) ([1]; peptide 1 μg (1 μg/ml)): 0.58
- FI (fluorescence index) ([1]; peptide 10 μg (10 μg/ml)): 3.42
- FI (fluorescence index) ([1]; peptide 100 μg (100 μg/ml)): 4.8
- FI (fluorescence index) ([1]; peptide 100 μg (100 μg/ml), listed as D2V-NS4b182–190): > 4
- ELISPOT IFN-γ spot-forming cells [2]: 37 ± 5 SFCs/1×10^5cells
- ICS CD8^+IFN-γ^+T cells, proportion in CD8^+ T cells [3]: 0.37 ± 0.09%
- Cross-reactivity of peptide-specific CD8^+ T cells towards heterologous variant peptides [3]: cross-reacted with each other

Sequence: LLMRTTWAF [D4V-NS4b179-187, D4V variant peptide of D1V-NS4b183-191, nonapeptide …]
- FI (fluorescence index) ([1]; peptide 1 μg (1 μg/ml)): 0.2
- FI (fluorescence index) ([1]; peptide 10 μg (10 μg/ml)): 0.59
- FI (fluorescence index) ([1]; peptide 100 μg (100 μg/ml)): 4.4
- FI (fluorescence index) ([1]; peptide 100 μg (100 μg/ml), listed as D4V-NS4b179–187): > 4
- ELISPOT IFN-γ spot-forming cells [2]: 22±4 SFCs/1×10^5cells
- ICS CD8^+IFN-γ^+T cells, proportion in CD8^+ T cells [3]: 0.16 ± 0.06%
- Cross-reactivity of peptide-specific CD8^+ T cells towards heterologous variant peptides [3]: cross-reacted with each other

Sequence: LLMRTTWAL [D1V-NS4b183-191]
- FI (fluorescence index) ([1]; peptide 1 μg (1 μg/ml)): 0.29
- FI (fluorescence index) ([1]; peptide 10 μg (10 μg/ml)): 0.4
- FI (fluorescence index) ([1]; peptide 100 μg (100 μg/ml)): 1.95
- FI (fluorescence index) ([1]; peptide 100 μg (100 μg/ml), listed as D1V-NS4b183–191): exceeds 1
- ELISPOT IFN-γ spot-forming cells [2]: 42 ± 7 SFCs/1×10^5cells
- ICS CD8^+IFN-γ^+T cells, proportion in CD8^+ T cells [3]: 0.44 ± 0.09%
- Cross-reactivity of peptide-specific CD8^+ T cells towards heterologous variant peptides [3]: marked cross-reactivity; also recorded: cross-reacted with each other

Sequence: LLMRTSWAL [D3V-NS4b182-190, D3V variant peptide of D1V-NS4b183-191, nonapeptide …]
- FI (fluorescence index) ([1]; peptide 1 μg (1 μg/ml)): 0.22
- FI (fluorescence index) ([1]; peptide 10 μg (10 μg/ml)): 0.65
- FI (fluorescence index) ([1]; peptide 100 μg (100 μg/ml)): 3.6
- FI (fluorescence index) ([1]; peptide 100 μg (100 μg/ml), listed as D3V-NS4b182–190): > 1
- ELISPOT IFN-γ spot-forming cells [2]: 24 ± 5 SFCs/1×10^5cells
- ICS CD8^+IFN-γ^+T cells, proportion in CD8^+ T cells [3]: 0.27 ± 0.07%
- Cross-reactivity of peptide-specific CD8^+ T cells towards heterologous variant peptides [3]: cross-reacted with each other

Sequence: LVMAFMAFL [D1V-C46-54]
- FI (fluorescence index) ([1]; peptide 1 μg (1 μg/ml)): 0.01
- FI (fluorescence index) ([1]; peptide 10 μg (10 μg/ml)): 0.02
- FI (fluorescence index) ([1]; peptide 100 μg (100 μg/ml)): 0.02

Sequence: QLWTALVSL [D3V-NS2a144-152, D3V variant peptide of D1V-NS2a144-152, nonapeptide …]
- FI (fluorescence index) ([1]; peptide 1 μg (1 μg/ml)): 0.2
- FI (fluorescence index) ([1]; peptide 10 μg (10 μg/ml)): 0.45
- FI (fluorescence index) ([1]; peptide 100 μg (100 μg/ml)): 2.6
- FI (fluorescence index) ([1]; peptide 100 μg (100 μg/ml), listed as D3V-NS2a144–152): > 1
- ELISPOT IFN-γ spot-forming cells [2]: 62 ± 9 SFCs/1×10^5cells
- ICS CD8^+IFN-γ^+T cells, proportion in CD8^+ T cells [3]: 0.79 ± 0.15%

Sequence: GILTLAAIV [D3V-NS4a140-148, D3V variant peptide of D1V-NS4a140-148, nonapeptide …]
- FI (fluorescence index) ([1]; peptide 1 μg (1 μg/ml)): 0.1
- FI (fluorescence index) ([1]; peptide 10 μg (10 μg/ml)): 0.15
- ELISPOT IFN-γ spot-forming cells [2]: 37 ± 6 SFCs/1×10^5cells
- ICS CD8^+IFN-γ^+T cells, proportion in CD8^+ T cells [3]: 0.37 ± 0.08%

Sequence: QLAVTIMAI [D2V-NS2a144-152, D2V variant peptide of D1V-NS2a144-152, nonapeptide …]
- FI (fluorescence index) ([1]; peptide 1 μg (1 μg/ml)): 0.24
- FI (fluorescence index) ([1]; peptide 10 μg (10 μg/ml)): 0.39
- FI (fluorescence index) ([1]; peptide 100 μg (100 μg/ml)): 3.85
- FI (fluorescence index) ([1]; peptide 100 μg (100 μg/ml), listed as D2V-NS2a144–152): > 1
- ELISPOT IFN-γ spot-forming cells [2]: 21±3 SFCs/1×10^5cells
- ICS CD8^+IFN-γ^+T cells, proportion in CD8^+ T cells [3]: 0.21 ± 0.05%

Sequence: MLLALIAVL [D1V-NS4a56-64]
- FI (fluorescence index) ([1]; peptide 1 μg (1 μg/ml)): 0.05
- FI (fluorescence index) ([1]; peptide 10 μg (10 μg/ml)): 0.05
- FI (fluorescence index) ([1]; peptide 100 μg (100 μg/ml)): 0.08
